Patent US20220162610A1, “NOVEL RNA TRANSCRIPT” (PTC Therapeutics, Inc., priority 2020, published 2022)

Assays:
HTT protein = HTT protein electrochemiluminescence (ECL) assay in HD patient fibroblasts, 96 h; assay type: cell-based, human; details: fibroblasts derived from HD patients, 96 h
Procedure: Human fibroblasts derived from a homozygous patient with HD (GM4857) were cultured for 96 hours in the presence of test compounds (in 0.5% DMSO) or controls at 37° C. in a humidified 5% CO2 atmosphere. After 96 hours, cells were lysed and frozen. HTT protein levels were measured in lysates as described below. Compounds that decreased HTT protein levels relative to DMSO control were further tested in a dose response assay.
For analysis in the electrochemiluminescence (ECL) assays, test compounds were serially diluted 3-fold in 100% DMSO (Sigma) to generate a 7-point concentration curve. A solution of test compound (500 nL, 200× in DMSO) was added to each test well with Acoustic Transfer System (EDC Biosystems); final concentration of DMSO was 0.5%. Fibroblasts were seeded in 96-well flat-bottomed plates (Thermo Fisher) at 4×10^3 cells/well in 100 μl of culture medium containing the test compound or DMSO vehicle control and incubated for 96 hours (37° C., 5% CO2, 100% relative humidity). After removal of the supernatant, cells were lysed in 50 μL of 1×LB11 extraction buffer (50 mM Tris (pH 7.4), 300 mM NaCl, 10% [w/v] glycerol, 3 mM EDTA, 1 mM MgCl2, 20 mM glycerophosphate, 25 mM NaF, 1% Triton X-100), containing a Complete™ protease inhibitor cocktail (Roche Diagnostics) with shaking at 4° C. for 30 minutes; the plates were then stored at −20° C.
Meso Scale Discovery® 96-well plates (MSD®) were coated overnight at 4° C. with primary antibodies in phosphate-buffered saline (PBS; 30 μl/well). The plates were washed three times with 0.05% Tween-20 in 1×PBS (PBS-T; 200 μl/well) then blocked (100 μl/well; 5% bovine serum albumin [BSA] in PBS-T) for 5-6 hours at room temperature (RT) with shaking. Plates were then washed three times with PBS-T. Cell lysates were transferred to the antibody coated plates (25 μl/well) and incubated with shaking overnight at 4° C. After removal of the lysates, the plates were washed three times with PBS-T, and 25 μl of detection antibody in 1% BSA, PBS-T was added to each well and incubated with shaking for 1 hour at room temperature. After three washes with PBS-T, 25 μl of Sulfo-Tag secondary antibody (MSD®; 0.25 μg/ml in 1% BSA, PBS-T) was added to each well and incubated with shaking for 1 hour at RT. After washing three times with PBS-T, 150 μl of read buffer T with surfactant (MSD®) was added to each empty well and the plate was imaged on the SI 6000 imager (MSD®) according to manufacturers' instructions for 96-well plates. Primary capture antibodies included: anti-polyglutamine-expanded HTT mouse monoclonal antibody (mAb) clone MW1 (1 μg/mL; Developmental Studies Hybridoma Bank); anti-HTT MAB2166 mAb (1 μg/mL; Millipore); anti-human KRAS rabbit polyclonal antibody (1 μg/mL; Thermo Fisher Scientific). Detection antibodies included: Huntingtin (D7F7) XP® Rabbit mAb (0.25 μg/ml; Cell Signalling Technology®); anti-hKRAS mouse mAb (0.25 μg/ml; LSBIO).

HTT pre-mRNA = assay: Ampliseq/RNAseq analysis of intron 49 pseudoexon inclusion and HTT expression in different cell types; assay type: cell-based, human
[1] = Unbound brain partition coefficient (Kp,uu) from mouse PK studies; assay type: in vivo; details: FVB (WT littermates of the BACHD colony), brain and plasma (unbound), oral, 10 mg/kg, average over animals of multiple mouse PK studies
Procedure: Oral pharmacokinetics (PK) of compounds was evaluated in WT littermates from the BACHD colony (FVB background). Mice were treated with test compounds (10 mg/kg) by oral gavage in 0.5% hydroxypropylmethyl cellulose (HPMC) with 0.1% Tween 80. Blood was collected by terminal cardiac puncture at specified time points (3 mice per time point) and centrifuged to generate plasma. Brain tissue was collected at the time of blood collection and homogenized in water. Protein was precipitated from plasma and brain homogenates with acetonitrile, methanol mixture (5:1, v:v) containing an internal standard that is a close analog of the test compounds. The mixture was filtered through an EMD Millipore MultiScreen™ Solvinert Filter Plate (MSRLN04, Millipore, Burlington, Mass.). Calibration standards were prepared in the same matrix and processed with the testing samples. Filtrates were analysed using Acquity ultra performance liquid chromatography (UPLC) system (Waters Corporation) tandem with Xevo TQ-s Spectrometer (Waters Corporation). Samples were injected on to a Waters UPLC Acquity BEH C18 Column (2.1*50 mm, 1.7 μm) maintained at 50° C. The injection volume was 3 μL and the mobile phase flow rate was 0.45 mL/min. The mobile phase consisted of 2 solvents: A) 0.1% formic acid in water and B) 0.1% formic acid in acetonitrile. The initial mobile phase started with 5% solvent B for 0.4 min, which was changed to […] over 0.8 min with linear gradients and then maintained at 95% solvent B for another 0.4 min. The drug concentrations were acquired and processed with MassLynx 4.1 software. PK parameters were estimated using the non-compartment method within Phoenix® WinNonlin® Build 8.1 (Certara USA, Inc., Princeton, N.J.).
The unbound brain partition coefficient (Kp,uu) is defined as the ratio between unbound brain free drug concentration and unbound plasma concentration. It was calculated using the following equation:
Kp,uu=Cbrain×fu,b/(Cplasma*fu,p)
Cbrain and Cplasma represent the compound concentrations in brain and plasma, respectively. fu,b and fu,p are the unbound fraction of each testing article in brain and plasma, respectively. Both fu,b and fu,p were determined in vitro using Pierce Rapid Equilibrium Dialysis (RED) device at Absorption System LLC (Exton, Pa.). Kp,uu was calculated individually for each animal from multiple mouse PK studies and the average values are reported here.

MDR1 = biological target: T1, MDR1 (Homo sapiens, UniProt P08183); assay: MDCK-MDR1 efflux assay; assay type: in vitro ADME; details: 10 μM, MDCK-MDR1 and MDCK-WT monolayers, 1 hour
T1 construct: host or cells: MDCK (Madin-Darby Canine Kidney) cells expressing MDR1
Procedure: The MDR1 efflux assay was conducted at Absorption System LLC (Exton, Pa.). Briefly, MDCK-MDR1 and MDCK-WT cell monolayers were grown to confluence on collagen-coated, microporous membranes in 12-well assay plates (Thermofisher). Compound solutions (10 μM) in permeability assay buffer (Hanks' balanced salt solution (HBSS), 10 mM HEPES, 15 mM glucose; pH of 7.4) were placed in the donor chamber. The receiver chamber was filled with assay buffer plus 1% BSA. Cell monolayers were dosed on the apical side (A-to-B) or basolateral side (B-to-A) and incubated at 37° C. (5% CO2, 100% relative humidity). Sampling from the donor chambers was performed at 0 and 1 hour; and from the receiver chambers at 1 hour. Each determination was performed in duplicate. The flux of lucifer yellow was also measured post-experimentally for each monolayer to ensure no damage was inflicted to the cell monolayers during the flux period. All samples were assayed by LC-MS/MS using electrospray ionisation. The apparent permeability (Papp) and percent recovery was determined using the following equation: […]
dCr/dt represents the slope of the cumulative receiver concentration versus time in μM/s; Vr is the volume of the receiver compartment (cm3); Vd is the volume of the donor compartment in (cm3); A is the area of the insert (1.13 cm2 for 12-well); C0 is the average measured concentration of the donor chamber at time zero in μM; Net Efflux ratio (ER) is defined as […].

T1 sequence (P08183 whole entry): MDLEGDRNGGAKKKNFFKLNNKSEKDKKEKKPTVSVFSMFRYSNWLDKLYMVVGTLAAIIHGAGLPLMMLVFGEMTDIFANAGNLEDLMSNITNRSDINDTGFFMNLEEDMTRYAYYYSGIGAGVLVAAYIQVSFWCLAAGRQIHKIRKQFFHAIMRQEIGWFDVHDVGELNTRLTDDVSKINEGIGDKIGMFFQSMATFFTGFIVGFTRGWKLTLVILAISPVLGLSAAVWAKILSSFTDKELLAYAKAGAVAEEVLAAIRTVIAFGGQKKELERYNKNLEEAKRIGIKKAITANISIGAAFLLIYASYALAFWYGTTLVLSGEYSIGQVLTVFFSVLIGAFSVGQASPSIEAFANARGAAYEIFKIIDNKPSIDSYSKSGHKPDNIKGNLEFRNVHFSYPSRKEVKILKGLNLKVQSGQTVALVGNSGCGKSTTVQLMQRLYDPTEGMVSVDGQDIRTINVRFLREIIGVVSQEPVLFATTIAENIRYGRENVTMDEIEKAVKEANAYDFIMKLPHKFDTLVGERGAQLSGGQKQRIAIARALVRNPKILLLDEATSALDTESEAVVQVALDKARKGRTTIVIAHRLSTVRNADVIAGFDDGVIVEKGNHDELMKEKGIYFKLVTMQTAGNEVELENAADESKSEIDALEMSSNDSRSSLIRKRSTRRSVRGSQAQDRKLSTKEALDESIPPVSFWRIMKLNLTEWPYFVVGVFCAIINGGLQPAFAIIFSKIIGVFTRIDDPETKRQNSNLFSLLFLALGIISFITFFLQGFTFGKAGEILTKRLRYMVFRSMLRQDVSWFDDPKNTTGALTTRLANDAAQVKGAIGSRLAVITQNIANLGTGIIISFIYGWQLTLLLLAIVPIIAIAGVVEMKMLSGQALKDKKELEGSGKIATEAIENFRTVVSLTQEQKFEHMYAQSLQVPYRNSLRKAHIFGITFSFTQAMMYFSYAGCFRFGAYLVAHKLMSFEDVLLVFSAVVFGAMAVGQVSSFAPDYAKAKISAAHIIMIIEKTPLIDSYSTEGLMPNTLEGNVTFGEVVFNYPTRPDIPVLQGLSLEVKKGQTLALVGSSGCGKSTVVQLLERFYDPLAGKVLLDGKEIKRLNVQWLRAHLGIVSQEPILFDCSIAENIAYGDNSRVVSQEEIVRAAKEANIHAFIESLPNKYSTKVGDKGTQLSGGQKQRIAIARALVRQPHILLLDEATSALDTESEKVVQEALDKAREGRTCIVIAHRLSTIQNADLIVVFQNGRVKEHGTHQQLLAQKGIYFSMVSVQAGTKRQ

CC(C)c1cc(-c2n[nH]cc2-c2ccc3c(c2)OCO3)c(O)cc1O [HTT-A]
HTT protein level (HTT protein): lower HTT protein levels

Cn1c(/C=C/c2ccc(Cl)cc2)c([N+](=O)[O-])c(=O)n(C)c1=O [HTT-B]
HTT protein level (HTT protein): lower HTT protein levels

CC1(C)CC(n2nnc3cc(-c4ccc(-n5nccn5)cc4O)nnc32)CC(C)(C)N1 [HTT-C3]
HTT gene expression quantified using RNAseq (FPKM) (HTT pre-mRNA; 100 nM, SHSY5Y cells (HTT-C2), TK6 cells (HTT-C3)): reduced HTT gene expression | inclusion of intron 49 pseudoexon (HTT pre-mRNA; HD fibroblasts, SH-SY5Y, TK6, MRC-5 cells): induced the inclusion of an Intron 49 pseudoexon | Kp uu [1]: 0.848 | NET MDR1 ER (MDR1): 2.0
